Test results from article PMC6268773, “Aminodi(hetero)arylamines in the Thieno[3,2-b]pyridine Series: Synthesis, Effects in Human Tumor Cells Growth, Cell Cycle Analysis, Apoptosis and Evaluation of Toxicity Using Non-Tumor Cells” (Molecules, 2012).

What was measured:
A375-C5 (melanoma) = assay: SRB cell growth inhibition assay, A375-C5; type: cell-based; details: Homo sapiens, A375-C5, 48h continuous treatment, mean ± SD, n = 3
Protocol: (§1) The effects of the aminodi(hetero)arylamines in the growth of four human tumour cell lines (MCF-7, A375-C5, NCI-H460 and HepG2) were evaluated using the SRB assay. Doxorubicin and ellipticine were used as positive controls. Furthermore, to investigate the possible toxicity of the compounds, the in vitro cell growth inhibition assay (SRB) was also performed using porcine liver non-tumor cells (PLP1) established by us.
(§2) Four human tumor cell lines, MCF-7 (breast adenocarcinoma), A375-C5 (melanoma), NCI-H460 (non-small cell lung cancer) and HepG2 (hepatocellular carcinoma) were used. MCF-7, A375-C5 and HepG2 were obtained from the European Collection of Cell Cultures (ECACC, Salisbury, UK) and NCI-H460 was kindly provided by the National Cancer Institute (NCI, Bethesda, MD, USA). Cells were routinely maintained as adherent cell cultures in RPMI-1640 medium supplemented with 5% FBS (MCF-7, NCI-H460 and A375-C5 cells) or in DMEM supplemented with 10% FBS, 2 mM glutamine, 100 U/mL penicillin and […] streptomycin (HepG2 cells), at 37 °C in a humidified atmosphere containing 5% CO2.
(§3) The effects of the compounds on the in vitro growth of human tumor cell lines and non-tumor porcine liver primary cells were evaluated according to the procedure adopted by the NCI (USA) in their “In vitro Anticancer Drug Discovery Screen”, using the SRB assay to assess cell growth.
(§4) For the cell lines, exponentially growing cells were obtained by plating 1.5 × 10^5 cells/mL for MCF-7, 0.75 × 10^5 cells/mL for A375-C5 and NCI-H460, and 5.0 × 10^5 cells/mL for HepG2, followed by 24 h of incubation. For the primary porcine liver cells, cells were incubated in 96-well plates at a density of 5.0 × 10^5 cells/mL, and cultivated in DMEM medium with 10% FBS, 100 U/mL penicillin and […] streptomycin.
(§5) Following a 24 h period to allow cells to adhere, cells were treated for 48 h with six serial dilutions of each test compound, starting from a maximum concentration of 125 µM. Following the 48 h treatment period, adherent cells were fixed in situ, washed and stained with SRB. The bound stain was solubilized and the absorbance was measured at 492 nm in the case of MCF-7, NCI-H460 and A375-C5 cells and at 515 nm in the case od HepG2 and PLP1 primary cells, in a plate reader (Biotek Instruments Inc., Powerwave XS, Bedfordshire, UK). Dose response curves were obtained and the concentration of the diarylamine that inhibited 50% of the net cell growth (GI50) was calculated as described elsewhere. Doxorubicin and ellipticine were used as positive controls of cell growth inhibition.

[1] = test system: NCI-H460 (non-small cell lung cancer); assay: SRB cell growth inhibition assay, NCI-H460; type: cell-based; details: Homo sapiens, NCI-H460, 48h continuous treatment, mean ± SD, n = 3
Protocol: as §1, §2, §3, §4, §5

[2] = SRB toxicity assay in non-tumor porcine liver primary cells; type: cell-based; details: pig, porcine liver primary cell culture (PLP1), non-tumor, PLP1 non-tumor porcine liver cells, 48h continuous treatment, SRB, mean ± SD, n = 3
Protocol: as §1
(§6) Porcine liver primary cell culture (PLP1) was prepared from freshly harvested porcine liver, obtained from a local slaughter house. Briefly, the liver tissue was rinsed in HBSS solution containing 100 U/mL penicillin, 100 µg/mL streptomycin and divided into 1 × 1 mm^3 explants. Some of these explants were placed in 25 cm^2 tissue flasks in DMEM medium supplemented with 10% FBS, 2 mM nonessential amino acids, 100 U/mL penicillin and […] streptomycin. This cell culture was maintained according to the procedure described previously by us.
as §3, §4, §5

[3] = test system: HepG2 (hepatocellular carcinoma); assay: SRB cell growth inhibition assay, HepG2; type: cell-based; details: Homo sapiens, HepG2, 48h continuous treatment, mean ± SD, n = 3
Protocol: as §1, §2, §3, §4, §5

[4] = test system: MCF-7 (breast adenocarcinoma); assay: SRB cell growth inhibition assay, MCF-7; type: cell-based; details: Homo sapiens, MCF7, MCF-7, 48h continuous treatment, mean ± SD, n = 3
Protocol: as §1, §2, §3, §4, §5

NCI-H460 cells [5] = assay: Cell cycle distribution profile by flow cytometry (propidium iodide); type: cell-based, human; details: NCI-H460, compound at GI50 concentration (1.4 μM), 48 h
Protocol: NCI-H460 cells were plated in 6-well plates at a final density of 1.5 × 10^5 cells/well and incubated at 37 °C for 24 h. […] As controls, cells were also incubated with medium only (blank) and with the compound’s vehicle (DMSO). Following 48 h of treatment, cells were fixed overnight in ice-cold 70% ethanol and re-suspended in PBS containing 0.1 mg/mL RNase A and 5 µg/mL propidium iodide. Cellular DNA content was analysed by flow cytometry using an Epics XL-MCL Coulter Flow cytometer (Brea, CA, USA) plotting at least 20,000 events per sample, as previously described. The analysis of cell cycle distribution was subsequently performed using the FlowJo 7.2 software (Tree Star, Inc., Ashland, USA) after cell debris and aggregates exclusion.

[6] = test system: porcine liver primary cell culture (PLP1); assay: SRB toxicity assay in non-tumor porcine liver primary cells; type: cell-based
Protocol: as §1, §6, §3, §4, §5

NCI-H460 cells [7] = assay: Apoptosis by flow cytometry (Annexin V-FITC/PI); type: cell-based, human; details: NCI-H460, compound at GI50 concentration (1.4 μM), 48 h, Annexin V/Propidium iodide
Protocol: Following 48 h treatment of NCI-H460 cells with compound 3c, as described above, the levels of apoptosis were analysed by flow cytometry using the Human Annexin V-FITC/PI apoptosis kit (Bender MedSystems, Vienna, Austria), according to the manufacturer’s instructions. Flow cytometry was carried out using an Epics XL-MCL Coulter flow cytometer plotting at least 20,000 events per sample, as previously described. The data was analysed using the FlowJo 7.2 software (Tree Star, Inc.).

[8] = test system: human tumor cell lines MCF-7, A375-C5, NCI-H460 and HepG2; assay: SRB cell growth inhibition, all tested human tumor cell lines (summary); type: cell-based; details: span over MCF-7, A375-C5, NCI-H460, HepG2, 48 h
Protocol: as §1, §3
For the cell lines, exponentially growing cells were obtained by plating 1.5 × 10^5 cells/mL for MCF-7, 0.75 × 10^5 cells/mL for A375-C5 and NCI-H460, and 5.0 × 10^5 cells/mL for HepG2, followed by 24 h of incubation. […]
Following a 24 h period to allow cells to adhere, cells were treated for 48 h with six serial dilutions of each test compound, starting from a maximum concentration of 125 µM. […] The bound stain was solubilized and the absorbance was measured at 492 nm in the case of MCF-7, NCI-H460 and A375-C5 cells and at 515 nm in the case od HepG2 and PLP1 primary cells, in a plate reader (Biotek Instruments Inc., Powerwave XS, Bedfordshire, UK). […]

**Q.** For COC(=O)c1sc2cccnc2c1Nc1ccc([N+](=O)[O-])cc1 [2a, Methyl 3-(4-nitrophenylamino)thieno[3,2-b]pyridine-2-carboxylate], which melting point is on record?
**A.** Its melting point is 203 to 205 °C.

**Q.** For COC(=O)c1sc2cccnc2c1Nc1ccccc1[N+](=O)[O-] [2b, Methyl 3-(2-nitrophenylamino)thieno[3,2-b]pyridine-2-carboxylate], which melting point is on record?
**A.** The melting point was 202 to 204 °C.

**Q.** Which melting point does the source give for COC(=O)c1sc2cccnc2c1Nc1ccc(OC)cc1[N+](=O)[O-] [2c, Methyl 3-(4-methoxy-2-nitrophenylamino)thieno[3,2-b]pyridine-2-carboxylate] here?
**A.** The melting point was 213 to 214 °C.

**Q.** Which GI50 (A375-C5 (melanoma)) does the source give for COC(=O)c1sc2cccnc2c1Nc1ccc(N)cc1 [3a, Methyl 3-(4-aminophenylamino)thieno[3,2-b]pyridine-2-carboxylate] here?
**A.** The GI50 was 112 ± 5 µM.

**Q.** And the GI50 [1]?
**A.** The GI50 was over 125 µM.

**Q.** And the GI50 at 48 h [2]?
**A.** The GI50 at 48 h was over 125 µM.

**Q.** What about the GI50 [3] of the same compound?
**A.** Its GI50 is over 125 µM.

**Q.** What about the GI50 [4] of the same compound?
**A.** The GI50 was over 125 µM.

**Q.** For COC(=O)c1sc2cccnc2c1Nc1ccccc1N [3b, Methyl 3-(2-aminophenylamino)thieno[3,2-b]pyridine-2-carboxylate], which GI50 (A375-C5 (melanoma)) is on record?
**A.** The GI50 was 26 ± 2.3 µM.

**Q.** What about the GI50 [1] of the same compound?
**A.** Its GI50 is 31.3 ± 2.9 µM.

**Q.** And the GI50 at 48 h [2]?
**A.** The GI50 at 48 h was 61.3 µM.

**Q.** And the melting point?
**A.** The melting point was 204 to 206 °C.

**Q.** What about the GI50 [3] of the same compound?
**A.** The GI50 was 99.26 ± 0.92 µM.

**Q.** What about the GI50 [4] of the same compound?
**A.** The GI50 was 33.8 ± 1.7 µM.

**Q.** For COC(=O)c1sc2cccnc2c1Nc1ccc(OC)cc1N [3c, Methyl 3-(2-amino-4-methoxhyphenylamino)thieno[3,2-b]pyridine-2-carboxylate], which “percentage of cells in the G0/G1 phase of the cell cycle (in words)” value (NCI-H460 cells [5]) is on record?
**A.** Its value is “significant decrease”.

**Q.** What about the “% of cells in the sub-G1 peak (in words)” value (NCI-H460 cells [5]; data not shown) of the same compound?
**A.** The value was “significantly increased”.

**Q.** What about the GI50 (A375-C5 (melanoma)) of the same compound?
**A.** Its GI50 is 1.3 ± 0.1 µM.

**Q.** And the GI50 [1]?
**A.** Its GI50 is 1.4 ± 0.4 µM.

**Q.** What about the “toxicity to non-tumor cells (in words)” value ([6]; PLP1, at the GI50 concentrations found in tumor cell lines / versus ellipticine) of the same compound?
**A.** Its value is “did not show toxicity”.

**Q.** What about the GI50 at 48 h [2] of the same compound?
**A.** The GI50 at 48 h was 12.5 µM.

**Q.** And the “percentage of apoptotic cells” value (NCI-H460 cells [7])?
**A.** The value was 36.6 ± 4.8%.

**Q.** What about the melting point of the same compound?
**A.** The melting point was 172 to 174 °C.

**Q.** What about the GI50 [3] of the same compound?
**A.** The GI50 was 1.63 ± 0.09 µM.

**Q.** What about the GI50 [8] of the same compound?
**A.** The GI50 was under 2 µM.

**Q.** What about the GI50 [4] of the same compound?
**A.** The GI50 was 1.4 ± 0.2 µM.

**Q.** For COc1cccc2c1C(=O)c1c(O)c3c(c(O)c1C2=O)C[C@@](O)(C(=O)CO)C[C@@H]3O[C@H]1C[C@H](N)[C@H](O)[C@H](C)O1 [Doxorubicin, reference compound], which GI50 (A375-C5 (melanoma)) is on record?
**A.** Its GI50 is 0.13 ± 0.01 µM.

**Q.** And the GI50 [1]?
**A.** Its GI50 is 0.09 ± 0.01 µM.

**Q.** And the GI50 [4]?
**A.** Its GI50 is 0.04 ± 0.01 µM.

**Q.** Which GI50 ([6]; PLP1 non-tumor porcine liver cells, 48h continuous treatment, SRB, mean ± SD, n = 3) does the source give for Cc1c2ccncc2c(C)c2c1[nH]c1ccccc12 [Ellipticine, reference compound] here?
**A.** The GI50 was 4.19 µM.

**Q.** And the GI50 at 48 h [2]?
**A.** Its GI50 at 48 h is 4 µM.

**Q.** And the GI50 [3]?
**A.** The GI50 was 0.8 ± 0.05 µM.
